The experiment addresses T1, Human GLP-1 receptor (Homo sapiens, UniProt P43220).
T1 construct: expressed in transfected cells
Nature of the experiment: Measurement of GLP-1 receptor agonist activity (cAMP assay). It is filed as cell-based. The conditions noted are these: for Emax: CHO-K1, hGLP-1R/CHO-K1 cells, cAMP, 100% = human GLP-1 (7-36) at 2 nM, 0% = DMSO only, read-out: Emax(%); for EC50: hGLP-1R/CHO-K1 cells, cAMP increase, 37° C. 1 hour. As to the method: Test Example 1: (Measurement of GLP-1 Receptor Agonist Activity)
Human GLP-1 receptor stably expressing cells (hGLP-1R/CHO-K1 cells) are cultured in an α-MEM medium (Sigma) containing 10% FBS (Hyclone), 2% GlutaMAX (Gibco), 1% G418 (Nacalai Tesque), and 1% Penicillin-Streptomycin Mixed Solution (Sigma) at 37° C. under 5% CO2 conditions, and recovered by treating a 10 fold diluted 5.0 g/l-trypsin/5.3 mmol/l-EDTA solution (Nacalai Tesque) and cryopreserved.
A DMSO solution containing the compound of the present invention or human GLP-1 (7-36) (Phoenix Pharmaceuticals) is dispensed into a 384-well microplate (Greiner) at 62.5 nL/well, and in addition, 400 μM Forskolin (Nacalai Tesque) is dispensed therein at 7.5 nL/well. Subsequently, the frozen GLP-1 R/CHO-K1 cells are thawed in a thermostatic bath at 37° C., suspended in HBSS buffer (GIBCO) containing 0.1% BSA (Sigma), 20 mM HEPES (GIBCO), 0.1 mM IBMX (Sigma), and 0.2 mM RO20-1724 (Calbiochem) at 2×10^4 cells/mL, and the cell suspension is added at 6 μL/well. The solution was incubated at 37° C. for 1 hour and intracellular cAMP concentration is measured using cAMP Gs dynamic kit (Cisbio) according to the protocol attached to the product. Specifically, cAMP-d2 and Anti-cAMP-Cryptate are each added in an amount of 3 μL/well, the mixture is incubated at room temperature for 1 hour, and time-resolved fluorescence is measured using PHERAstar (BMG Labtech).
The dilution concentration or the dilution solvent are changed as necessary.
The compounds of the present invention were tested essentially as described above.

T1 sequence (P43220 24-463): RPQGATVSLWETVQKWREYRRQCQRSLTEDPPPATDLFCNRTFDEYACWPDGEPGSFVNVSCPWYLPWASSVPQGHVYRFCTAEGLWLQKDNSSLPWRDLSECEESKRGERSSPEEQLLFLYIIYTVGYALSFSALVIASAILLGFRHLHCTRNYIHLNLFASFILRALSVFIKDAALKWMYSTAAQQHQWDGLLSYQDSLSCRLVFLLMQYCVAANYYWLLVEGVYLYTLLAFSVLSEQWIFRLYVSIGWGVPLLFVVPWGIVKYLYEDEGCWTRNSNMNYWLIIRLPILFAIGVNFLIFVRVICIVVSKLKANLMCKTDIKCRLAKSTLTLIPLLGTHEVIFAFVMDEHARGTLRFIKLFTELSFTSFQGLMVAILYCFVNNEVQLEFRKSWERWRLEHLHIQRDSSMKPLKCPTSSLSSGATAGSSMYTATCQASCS

The Emax is the greatest response seen or fitted, relative to the assay's reference. What is called EC50 is the midpoint of the concentration-response curve. Higher therefore signals weaker potency. As to `CC(c1nc2ccc(C(=O)O)cc2n1C[C@@H]1CCO1)N1CCc2cc(C(F)(F)F)c(OCc3ccc(Cl)cc3F)cc2C1` (mixture of isomers) [Compound I-032], the Emax worked out at 146% and the EC50 came out at 92.7 nM.

In the case of `CCC1c2cc(OCc3ccc(Cl)cc3F)c(C(F)(F)F)cc2CCN1Cc1nc2ccc(C(=O)O)cc2n1C[C@@H]1CCO1` (mixture of isomers) [Compound I-044], the Emax worked out at 103% and the EC50 is 9.98 nM.

As to `O=C(O)c1ccc2nc(CN3CCc4cc(C(F)(F)F)c(OCc5ccc(Cl)cc5F)cc4C3C(F)F)n(C[C@@H]3CCO3)c2c1` (mixture of isomers) [Compound I-066], the Emax was found to be 124% and the EC50 came to 8.72 nM.

Take `O=C(O)c1ccc2nc(CN3CCc4cc(C(F)(F)F)c(OCc5ccc(Cl)cc5F)cc4C3CF)n(C[C@@H]3CCO3)c2c1` (mixture of isomers) [Compound I-133]: the Emax was 112% and the 50% effective concentration (EC50) was found to be 4.5 nM.

`Cc1cc2c(cc1OCc1ccc(Cl)cc1F)CN(Cc1nc3ccc(C(=O)O)cc3n1C[C@@H]1CCO1)CC2` [Compound I-001]: the Emax came to 75% and the EC50 amounted to 47.5 nM.

Consider `CCn1cncc1Cn1c(CN2CCc3cc(C)c(OCc4ccc(Cl)cc4F)cc3C2)nc2ccc(C(=O)O)cc21` [Compound I-002], for which the Emax was 92.2% and the EC50 came to 43.3 nM.

For `Cc1cc2c(cc1OCc1ccc(Cl)cc1F)C(=O)N(Cc1nc3ccc(C(=O)O)cc3n1C[C@@H]1CCO1)CC2` [Compound I-004], the Emax worked out at 75.3% and the EC50 amounted to 43.9 nM.

On to `Cc1cc2ccc(Cc3nc4ccc(C(=O)O)cc4n3C[C@@H]3CCO3)cc2nc1OCc1ccc(Cl)cc1F` [Compound I-006], for which the Emax came to 86%.

Consider `O=C(O)c1ccc2nc(CN3CCc4cc(Br)c(OCc5ccc(Cl)cc5F)cc4C3)n(C[C@@H]3CCO3)c2c1` [Compound I-007], for which the Emax is 75.7% and the EC50 is 19.8 nM.

As for `N#Cc1cc2c(cc1OCc1ccc(Cl)cc1F)CN(Cc1nc3ccc(C(=O)O)cc3n1C[C@@H]1CCO1)CC2` [Compound I-008], the maximal response (Emax) was found to be 84.3%.

For `Cc1cc2c(cc1OCc1ccc(Cl)cc1F)CN(Cc1nc3ccc(C(=O)O)nc3n1C[C@@H]1CCO1)CC2` [Compound I-009], the Emax worked out at 81.3% and the EC50 amounted to 27.3 nM.

For the compound `Cc1cc2c(cc1OCc1ccc(Cl)cc1F)C(=O)N(Cc1nc3ccc(C(=O)O)nc3n1C[C@@H]1CCO1)CC2` [Compound I-011], the Emax turned out to be 92.7% and the EC50 is 70.8 nM.

Take `Cc1cc2c(cc1OCc1ccc(C(F)(F)F)cn1)CN(Cc1nc3ccc(C(=O)O)cc3n1C[C@@H]1CCO1)CC2` [Compound I-015]: the Emax was 81.3% and a half-maximal effect (EC50) was put at 74.3 nM.

As for `Cc1cc2c(cc1OCc1ccc(Cl)cc1)CN(Cc1nc3ccc(C(=O)O)cc3n1C[C@@H]1CCO1)CC2` [Compound I-016], the Emax is 79% and the EC50 stood at 50.3 nM.

With `Cc1cc2c(cc1OCc1ccc(C(F)(F)F)cc1F)CN(Cc1nc3ccc(C(=O)O)cc3n1C[C@@H]1CCO1)CC2` [Compound I-020], the Emax was determined as 89% and the EC50 is 75.8 nM.

As to `O=C(O)c1ccc2nc(CN3CCc4cc(Cl)c(OCc5ccc(Cl)cc5F)cc4C3)n(C[C@@H]3CCO3)c2c1` [Compound I-022], the Emax turned out to be 92.3% and a half-maximal effect (EC50) was put at 15 nM.

For the compound `O=C(O)c1ccc2nc(CN3CCc4cc(C(F)(F)F)c(OCc5ccc(Cl)cc5F)cc4C3)n(C[C@@H]3CCO3)c2c1` [Compound I-023], the Emax stood at 86% and the EC50 was 4.56 nM.

For `O=C(O)c1ccc2nc(CN3CCc4cc(Cl)c(OCc5ccc(Cl)cc5F)cc4C3)n(C[C@@H]3CCO3)c2n1` [Compound I-024], the Emax came out at 92.7% and the midpoint of the response, the EC50, lay at 26.4 nM.

Source of the values: patent US20240217966A1, “PHARMACEUTICAL COMPOSITION CONTAINING GLP-1 RECEPTOR AGONIST HAVING FUSED RING” (Shionogi & Co., Ltd., priority 2021, published 2024).
